A short description of assay [1]: Immunosuppressant activity (assay not described). The conditions noted are these: may be attributable to assay differences.
Another assay addresses T1, ET-B (Rattus norvegicus, UniProt P21451).
T1 construct: Membranes were prepared from rat hippocampus, and rat or cow aorta; from tissue; host or cells: rat hippocampus membranes
T1 sequence (P21451 27-442): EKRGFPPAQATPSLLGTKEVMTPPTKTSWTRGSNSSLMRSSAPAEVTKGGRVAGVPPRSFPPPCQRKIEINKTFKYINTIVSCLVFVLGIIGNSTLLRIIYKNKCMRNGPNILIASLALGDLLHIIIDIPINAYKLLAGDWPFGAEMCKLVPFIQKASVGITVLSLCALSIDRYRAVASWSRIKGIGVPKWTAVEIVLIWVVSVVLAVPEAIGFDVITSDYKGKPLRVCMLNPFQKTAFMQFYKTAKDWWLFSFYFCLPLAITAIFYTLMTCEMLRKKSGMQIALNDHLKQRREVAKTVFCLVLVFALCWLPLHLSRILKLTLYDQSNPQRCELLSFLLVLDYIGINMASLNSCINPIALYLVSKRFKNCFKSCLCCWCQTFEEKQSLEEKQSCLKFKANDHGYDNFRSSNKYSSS
In words: 125I-ET-1 endothelin receptor binding assay, rat hippocampus membranes. The conditions noted are these: 25 pM 125I-ET-1, 37° C. Here is the method:
(§1) The binding of cyclopeptides I, II and III to the endothelin receptor was determined in accordance with the assay described in detail immediately below. It is similar to the assay described in Ambar et al. (1989) Biochem. Biophys. Res. Commun. 158, 195-201; and Khoog et al. (1989) Febs Letters, 253, 199-202.
(§2) Endothelin-1 (ET-1) was purchased from Peptides International (Louisville, KY ). ¹²⁵I-ET-1 (2000 Ci/mMol) was purchased from Amersham (Arlington Heights, IL).
(§3) Membranes were prepared from rat hippocampus, and rat or cow aorta. Dissected tissue was homogenized twice for 30 seconds with a Brinkman Polytron [setting 10, Generator PTA 20 TS (Westbury, NY)] in ice cold 250 mM sucrose, 50 mM Tris-HCl pH 7.4 with 7 µg/ml pepstatin A and 0.5 µg/ml leupeptin. The crude particulate matter was removed by centrifugation at 750 x g for 10 min. The membranes were sedimented from the supernatant fraction by centrifugation at 48,000 g for 30 min. Membrane pellets were resuspended in the above buffer with protease inhibitors. Aliquots of these suspensions were stored at -70° C.
(§4) Binding studies with ¹²⁵I-ET-1 were conducted in 50 mM potassium phosphate pH 7.5 with 0.1% bovine serum albumin (BSA) using 12-well Shatron (Lier, Norway) cell harvester tube strips. ¹²⁵I-ET-1 concentrations were 25 pM for hippocampus, 150 pM for aorta. Samples were dissolved in dimethylsulfoxide (DMSO). Upon addition of the sample, the final DMSO concentration was 3%. Membranes were added last to start the binding reaction. The reaction mixture was incubated at 37° C for 30 or 60 minutes. Binding reactions were terminated using a Skatron cell harvester by filtration through glass fiber filter pads presoaked with 2% BSA. The samples on the pads were immediately washed with 150 mM NaCl 0.1% BSA. The pads were punched out and radioactivity was evaluated in a Beckman Gamma 5500 gamma counter (Fullerton, CA). Nonspecific binding was determined in the presence of 100 nM ET-1. The results of this binding assay are set out in the table of values below: TABLE VI

A further assay concerns the target T2, ET-A (Rattus norvegicus, UniProt P26684).
T2 construct: Membranes were prepared from rat hippocampus, and rat or cow aorta; from tissue; host or cells: rat aorta membranes
T2 sequence (P26684 21-426): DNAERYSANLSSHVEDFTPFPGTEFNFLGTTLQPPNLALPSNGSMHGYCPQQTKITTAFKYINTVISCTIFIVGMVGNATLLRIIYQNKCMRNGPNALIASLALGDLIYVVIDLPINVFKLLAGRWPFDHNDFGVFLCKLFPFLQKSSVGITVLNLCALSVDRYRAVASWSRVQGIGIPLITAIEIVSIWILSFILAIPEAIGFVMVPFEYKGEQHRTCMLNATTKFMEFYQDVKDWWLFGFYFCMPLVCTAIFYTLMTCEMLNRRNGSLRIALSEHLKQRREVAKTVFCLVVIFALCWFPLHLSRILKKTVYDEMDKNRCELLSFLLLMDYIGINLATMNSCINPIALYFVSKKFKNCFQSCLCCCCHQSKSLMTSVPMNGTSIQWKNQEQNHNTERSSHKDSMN
Kind of assay: 125I-ET-1 endothelin receptor binding assay, rat aorta membranes. The following applies: 150 pM 125I-ET-1, 37° C. Here is the method:
as §1, §2, §3, §4

*1 amine or outer side, *2 acyl side, *3 side chain or, on linkers, in order; H or OH if unused. Where a SMILES comes first, the peptide text is derived from it. Bridges are numbered along the chain shown (N, C = ends). [ ]: non-standard residue; d: D form. The star is where a group is joined. dPhg(3,5-diOH) = N[C@@H](C(=O)O)c1cc(O)cc(O)c1; X2 = O=C([C@@H](N[*:1])c1cc(O)cc(O)c1)[*:2]; d(aThr) = C[C@@H](O)[C@@H](N)C(=O)O; Pyrrole2CO = O=C(c1ccc[nH]1)*; X1 = O=C(c1ccc(Cl)[nH]1)*

With `C[C@H]1NC(=O)[C@@H](Cc2ccccc2)NC(=O)[C@H](NC(=O)[C@H](Cc2ccccc2)NC(=O)c2ccc(Cl)[nH]2)[C@@H](C)OC(=O)[C@@H](c2cc(O)cc(O)c2)NC(=O)[C@@H](c2cc(O)cc(O)c2)NC1=O` [Compound III] (X1-F[d(aThr)][dF][dA][dPhg(3,5-diOH)][dPhg(3,5-diOH)]; ester 2-C), the immunosuppressant activity entry in assay [1] is recorded as “no significant immunosuppressant activity”. Further, the Ki on ET-B stood at 500 nM; on ET-A, 200 nM.

As for `C[C@H]1NC(=O)[C@@H](Cc2ccccc2)NC(=O)[C@H](NC(=O)[C@H](Cc2ccccc2)NC(=O)c2ccc(Cl)[nH]2)[C@@H](C)OC(=O)[C@H](c2cc(O)cc(O)c2)NC(=O)[C@@H](c2cc(O)cc(O)c2)NC1=O` [Compound II] (X1-F[d(aThr)][dF][dA][dPhg(3,5-diOH)][X2]; ester 2-C), the immunosuppressant activity entry in assay [1] was “no significant immunosuppressant activity”. In addition, the Ki on ET-B and at ET-A was 3000 nM throughout.

For the molecule `C[C@H]1NC(=O)[C@@H](Cc2ccccc2)NC(=O)[C@H](NC(=O)[C@H](Cc2ccccc2)NC(=O)c2ccc[nH]2)[C@@H](C)OC(=O)[C@@H](c2cc(O)cc(O)c2)NC(=O)[C@@H](c2cc(O)cc(O)c2)NC1=O` [Compound I] (Pyrrole2CO-F[d(aThr)][dF][dA][dPhg(3,5-diOH)][dPhg(3,5-diOH)]; ester 2-C), the Ki is 200 nM on ET-B and 100 nM at ET-A.

These data come from patent EP0496452A1, “Novel endothelin receptor antagonists isolated from microbispora” (MERCK & CO. INC., priority 1991, dated 1992).
